Patent US20140093550A1 (priority 2012, published 2014)

Tests used:
[1] = test system: Legionella pneumophila biofilm; type: cell-based, Legionella pneumophila strain Philadelphia 1 (ATCC 33152); settings: 5 days post-treatment after 7 days of treatment (Example 7 biofilms)
[2] = test system: Legionella pneumophila biofilm; type: cell-based, Legionella pneumophila strain Philadelphia 1 (ATCC 33152); settings: 7 days; nanoparticles 1 microgram/milliliter, chlorine dioxide 0.1 ppm

**Q.** What does the source list for `[O][Cl+][O-]` [chlorine dioxide biocide, chlorine dioxide]?
**A.** fold increase in biomass on day 12 [1]: ~1.25 fold; biomass of biofilm after treatment (Example 7, FIG. 14) [2]: about 0.5 micrometers^3/micrometers^2
